The text below walks through data of PubChem BioAssay (NCI).

Test in all cases: NCI-60 cell line screen, 48 h
Test [1] has as its system A498 renal.
Test [2] has as its system HCT-116 colon.
In test [3] the test system is HOP-92 NSCLC.
The subject of test [4] is M14 melanoma.
Test [5] relates to MDA-MB-435.
The subject of test [6] is OVCAR-8 ovarian.
For test [7], the system named is SK-MEL-5 melanoma.
In test [8] the test system is SNB-75 CNS.
The test system of test [9] is SW-620 colon.
The test system of test [10] is UACC-257 melanoma.

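Where inhibition never reached the appropriate level, the endpoint shown equals the highest concentration tested. Otherwise, values were interpolated linearly from a five-concentration, 48-hour dose response in 96-well plates. GI50: concentration for 50% inhibition of growth. TGI denotes the concentration required for complete inhibition of growth.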 Bounds are passed on as bounds.

Turning to `O=C1Nc2ccccc2C12CC(c1ccccc1)=NN2` (centres undefined), the GI50 in [1] was 1850 nM; in test [2], 4830 nM; in test [3], 1650 nM; in [4], 4900 nM; in test [5], 1660 nM; in [6], 9280 nM. The GI50 in test [7] was 4810 nM; in [8] it was 2980 nM; in [9], 3750 nM; in test [10], 5.02 µM. For the same molecule, the TGI in [1] is 9.24 µM; in test [2] it was over 100 µM; in [3], 9.43 µM; in test [4], 46.3 µM; in test [5] it was 4.5 µM; in [6], 96.9 µM. Moreover, the TGI in [7] was over 100 µM; in [8], 59.4 µM; in [9], over 100 µM; in [10] it was over 100 µM.
Take `COc1cc(/C=C/C(=O)c2c(C)n([O-])c3cc(C)c(C)cc3[n+]2=O)cc(OC)c1OC`: the GI50 in [1] was 12100 nM; in test [2], 8080 nM; in test [3] it was 18200 nM; in test [4], 16100 nM; in test [5], 20400 nM; in test [6], 23600 nM. Also, the GI50 was 13900 nM in test [7], 19800 nM in test [8], 13600 nM in test [9] and 16.7 µM in test [10]. The TGI was 37.7 µM in test [1]; 38.3 µM in test [2]; 42.5 µM in test [3]; 60.2 µM in test [4]; over 100 µM in test [5]; 71.8 µM in [6]. Also, the TGI in test [7] stood at 34 µM; in test [8], 41.3 µM; in test [9], 40.7 µM; in test [10], 48.8 µM.
As to `Cn1cc(-c2csc(-c3cn(CCN4CCOCC4)c4ccc(F)cc34)n2)c2cccnc21`, the GI50 in test [1] was 5660 nM; in test [2], 3000 nM; in [3], 2390 nM; in [4], 2090 nM; in [5], 2770 nM; in [6], 2750 nM. Besides, the GI50 is 1850 nM in [7], 2570 nM in [8], 3620 nM in test [9] and 4.54 µM in [10]. For the same molecule, the TGI amounted to 48.5 µM in test [1]; 10.2 µM in test [2]; 9.12 µM in test [3]; 4.89 µM in test [4]; 10.5 µM in test [5]; 7.88 µM in test [6]. In addition, the TGI in test [7] is 3.56 µM; in [8], 50.5 µM; in test [9], 57.5 µM; in [10] it was 28.9 µM.
Take `O=C1CC(c2ccccc2)Cc2nc3ccc(Cl)cc3cc21` (centres undefined): the GI50 in [1] was 50.3 nM; in [2] it was 47.2 nM; in test [3] it was 1510 nM; in test [4] it was 35.6 nM; in test [5], 23.5 nM; in test [6] it was 386 nM. Further, the GI50 in [7] was 309 nM; in [8], 126 nM; in test [9], 323 nM; in test [10], 15.6 µM. The TGI in [1] is 0.401 µM; in test [2], over 49.5 µM; in test [3], 42.5 µM; in [4] it was 23.8 µM; in [5] it was 0.0649 µM; in test [6], over 100 µM. The TGI was 2.37 µM in test [7], 70.3 µM in [8], over 100 µM in test [9] and over 85.4 µM in test [10].
In the case of `COc1ccc2nc(-c3ccccc3)cc(Nc3ccc(/C(C)=N/O)cc3)c2c1`, the GI50 in test [1] was 2030 nM; in [2], 1520 nM; in test [3], 821 nM; in test [4] it was 1460 nM; in test [5], 3400 nM; in test [6], 3020 nM. Further, the GI50 was 2620 nM in test [7], 3540 nM in test [8], 2720 nM in [9] and 2.88 µM in test [10]. For the same molecule, the TGI is 4.98 µM in test [1]; 2.85 µM in test [2]; 22.5 µM in test [3]; 2.78 µM in test [4]; over 27.5 µM in [6]; 7.57 µM in [7]. The TGI was over 100 µM in test [8], over 22.1 µM in test [9] and 7.78 µM in [10].
Turning to `CC(=O)OCCC/C(=C\c1ccc2ccccc2c1)[N+](=O)[O-]`, the GI50 is 1040 nM in test [1]; 1610 nM in test [2]; 1440 nM in test [3]; 1580 nM in [4]; 1530 nM in test [5]; 2060 nM in [6]. Besides, the GI50 is 1720 nM in [7], 1450 nM in [8], 1440 nM in [9] and 1.81 µM in test [10]. The TGI came out at 2.39 µM in test [1]; 3.3 µM in [2]; 3.17 µM in test [3]; 3.21 µM in test [4]; 3.77 µM in test [5]; 5.09 µM in [6]. In addition, the TGI in test [7] was determined as 3.29 µM; in test [8], 2.99 µM; in test [9], 3.27 µM; in test [10], 3.54 µM.
Take `O=C1C=C(N2CC2)c2ccccc2C1=O`: the GI50 in test [1] was 1360 nM; in test [2], 1470 nM; in test [3] it was 1630 nM; in [4] it was 1630 nM; in test [5], 778 nM; in [6], 1460 nM. Moreover, the GI50 in test [7] is 1600 nM; in test [8], 1570 nM; in [9] it was 1340 nM; in test [10] it was 1.69 µM. The TGI worked out at 2.84 µM in test [1]; 2.9 µM in test [2]; 3.41 µM in test [3]; 3.04 µM in test [4]; 2.23 µM in test [5]; 2.86 µM in test [6]. For the same molecule, the TGI is 3.04 µM in test [7], 3.12 µM in test [8], 2.92 µM in test [9] and 3.1 µM in test [10].
